Assay results from patent publication US20070105874A1, “Anti-Tumor Methods Using Multi Drug Resistance Independent Synthetic HSP90 Inhibitors” (Conforma Therapeutics Corporation, priority 2005, published 2007).

Columns and labels:
[1] = system: H295R adrenal cortical carcinoma cells; assay: MTS cytotoxicity assay in H295R adrenal cortical carcinoma cells; conditions: 5 days
Experimental: H295R cells were plated in 96-well plate at low confluence and were analyzed for IC50 as described in FIG. 2 with indicated compounds.
(§1) MTS assays measure the cytotoxicity of the compounds. […] Cells were seeded in 96 well plates at 2000 cells/well and allowed to adhere overnight in Dulbecco's modified Eagle's medium supplemented with 10% fetal bovine serum. The final culture volume was 100 μl. Viable cell number was determined by using the Celltiter 96 AQueous Non-radioactive Cell Proliferation Assay (Promega, Madison Wis.). The MTS/PMS (phenazine methosulfate) solution was mixed at a ratio of 20:1, and 20 μL was added per well to 100 μl of culture medium. After 2-4 hours, the formation of the formazan product was measured at 490 nm absorbance using a multiwell plate spectrophotometer. Background was determined by measuring the Abs 490 nm of cell culture medium and MTS-PMS in the absence of cells and was subtracted from all values. Percent viable cells was calculated as follows: % viable cells=(Abs at 490 nm treated cells/Abs at 490 nm untreated cells)×100

[2] = molecular target: T1, P-gp (Homo sapiens, UniProt P08183); assay: Rhodamine 123 retention (P-gp efflux inhibition) in H295R cells; type: cell-based; conditions: rhodamine 123, concentrations up to 10 mM
T1 construct: adrenocortical carcinoma, a tumor that naturally expresses P-gp; endogenous in cells; host or cells: H295R adrenal cortical carcinoma cells
Experimental: Rhodamine 123 level within cells was measured by flow cytometry as described in FIG. 9.

[3] = system: P-gp over-expressing MES SA Dx5 and NCI/ADR-Res cells; assay: MTS cytotoxicity assay in P-gp over-expressing versus non-expressing cell lines; type: cell-based
Experimental: The cell lines were plated in 96-well plate at 10-20% confluence and treated with increasing concentrations of indicated drug from 1 nM to 10 mM. 5 days later, the surviving fraction was estimated by MTS assay.
as §1

## C=CCNC1=C2CC(C)CC(OC)C(O)C(C)/C=C(\C)C(OC(N)=O)C(OC)/C=C\C=C(/C)C(=O)NC(=CC1=O)C2=O (centres unmarked) [Compound 17-AAG, (4E,6Z,10E)-19-(allylamino)-13-hydroxy-8,14-dimethoxy-4,10,12,16-tetramethyl-3,20,22-trioxo-2-azabicyclo[16.3.1]docosa-1(21),4,6,10,18-pentaen-9-yl carbamate]
[1]
  cytotoxic potency in adrenal cortical carcinoma: more potent than CsA
[2]
  inhibitory effect on P-gp efflux activity: No inhibitory effect

## CO[C@H]1/C=C\C=C(/C)C(=O)NC2=CC(=O)C(NCCN(C)C)=C(C[C@@H](C)C[C@H](OC)[C@H](O)[C@@H](C)/C=C(\C)[C@@H]1OC(N)=O)C2=O [Compound 17-DMAG, (4E,6Z,8S,9S,10E,12S,13R,14S,16R)-19-(2-(dimethylamino)ethylamino)-13-hydroxy-8,14-dimethoxy-4,10,12,16-tetramethyl-3,20,22-trioxo-2-azabicyclo[16.3.1]docosa-1(21),4,6,10,18-pentaen-9-yl carbamate]
[1]
  cytotoxic potency in adrenal cortical carcinoma: weak
[3]; cytotoxicity in cell lines expressing P-gp or MRP to various extent
  P-gp substrate status: P-gp substrates

## COc1c(C)cnc(Cn2cc(C#CCCC(N)=O)c3c(Cl)nc(N)nc32)c1C [Compound XI, 5-(2-amino-4-chloro-7-((4-methoxy-3,5-dimethylpyridin-2-yl)methyl)-7H-pyrrolo[2,3-d]pyrimidin-5-yl)pent-4-ynamide]
[3]; P-gp+++ lines
  increase of IC50 in P-gp+++ lines: 10-20 fold
